Measurements taken from patent US20030180924A1, “Formulation of certain pyrazolo [3,4,-d] pyrimidines as kinase modulators” (priority 2002, published 2003).
Read-outs that look alike come from different tables or passages of the source.

How the values were obtained:
[1] = Bioavailability testing, IP treatment (whole blood, LC/MS); format: in vivo; conditions: 0.793 mg/Kg, male CD-1 mice; for AUC / Cmax: whole blood; for Tmax / bioavailability / half-life / Cmax: mouse, in vivo; for half-life: read-out: T½ (converted)
Description: (§1) Compositions comprising the free base of 1-Na-PP1 and 1-NM-PP1 (Control) and the hydrochloride salt of 1-Na-PP1 and 1-NM-PP1 formulated with Vitamin E TPGS are administered to male CD-1 mice intraperitoneally (IP) and intravenously (IV). Whole blood samples were collected from three animals per time point and prior via cardiac puncture into EDTA tubes and placed on wet ice. Samples were analyzed after drying and predissolution in 0.1:20:80 formic acid:methanol:water by liquid chromatography/mass spectrometry using an Xterra C182.5 micromenter particle size analytical column (15 mm×2.1 mm).

[2] = Bioavailability testing, IV treatment (whole blood, LC/MS); format: in vivo; conditions: male CD-1 mice; for AUC: whole blood; for clearance / Vd: mouse, in vivo; for Vd: read-out: Vdss
Description: as §1

Q: Which AUC/Dose [1] does the source give for `CC(C)(C)n1nc(Cc2cccc3ccccc23)c2c(N)ncnc21` [1-NM-PP1 (Control)] here?
A: 0.16 ng·h/mL/µg/kg

Q: What about the AUC [1] of the same compound?
A: 134.84 ng·h/mL

Q: And the Tmax [1]?
A: 4.98 min

Q: What about the bioavailability [1] of the same compound?
A: 100%

Q: What about the half-life [1] of the same compound?
A: 85.2 min

Q: And the Cmax [1]?
A: 90.6 ng/mL

Q: What about the AUC/Dose ([2]; 0.793 mg/Kg) of the same compound?
A: 0.13 ng·h/mL/µg/kg

Q: What about the T½ ([2]; 0.793 mg/Kg) of the same compound?
A: 23.4 min

Q: What about the AUC ([2]; 0.793 mg/Kg) of the same compound?
A: 37.08 ng·h/mL

Q: What about the clearance ([2]; 0.793 mg/Kg) of the same compound?
A: 130 mL/min/kg

Q: And the Vd ([2]; 0.793 mg/Kg)?
A: 4.1 L/kg

Q: With `CC(C)(C)n1nc(-c2cccc3ccccc23)c2c(N)ncnc21` [1-Na-PP1 (Control), 1-tert-butyl-3-naphthalen-1-yl-1H-pyrazolo[3,4-d]pyrimidin-4-ylamine] as the compound, how does the AUC/Dose [1] read?
A: 0.13 ng·h/mL/µg/kg

Q: And the AUC [1]?
A: 99.37 ng·h/mL

Q: And the Tmax [1]?
A: 4.98 min

Q: What about the bioavailability [1] of the same compound?
A: 100%

Q: What about the half-life [1] of the same compound?
A: 90.6 min

Q: What about the Cmax [1] of the same compound?
A: 55 ng/mL

Q: What about the AUC/Dose ([2]; 0.269 mg/Kg) of the same compound?
A: 0.12 ng·h/mL/µg/kg

Q: What about the T½ ([2]; 0.269 mg/Kg) of the same compound?
A: 27.6 min

Q: And the AUC ([2]; 0.269 mg/Kg)?
A: 32.14 ng·h/mL

Q: What about the clearance ([2]; 0.269 mg/Kg) of the same compound?
A: 133 mL/min/kg

Q: What about the Vd ([2]; 0.269 mg/Kg) of the same compound?
A: 5.3 L/kg
